Here are results for one molecule from patent US9162992B2, “Compounds and compositions for treatment of breathing control disorders or diseases” (GALLEON PHARMACEUTICALS, INC., priority 2010, dated 2015).

Each structure is given as a SMILES string.

The nature of data set [1]: pKa. Type of data set: physicochemical.
For data set [2], the system named is hypoxic ventilatory response. The experiment in a line: Hypoxic ventilatory response (HVR) in the rat, plethysmography. Format: in vivo. The note with it: 0.03 mg/kg/min infusion 50 min; 12% O2 for 20 min; vs vehicle. As for the experimental part: Rats with a pre-cannulated jugular vein (for administering drugs) were acclimated to plethysmography chambers for a minimum of 60 minutes, or until animals were no longer restless. Each animal was dosed with compound (XXXVI), labeled as cmpd (A), at 0.03 mg/kg/min via infusion into the jugular vein catheter for a period of 50 minutes. After a period of 20 minutes, an isocapnic hypoxic mixture (12% O2 balanced N2) was administered into all chambers using a gas mixer (CWE inc. GSM-3 gas mixer) for 20 minutes. After this time, the gas mixer was turned off, resulting in normal room air pumped into the chambers. Ten minutes later, the infusion pumps were turned off, and all animals were given a 20 minute recovery period, followed by a post-study analysis of rat health and behavior. […] Results are illustrated in FIG. 3.

The test system of data set [3] is spontaneously breathing rats. Put plainly: Dose-dependent effect on minute ventilation (MV) in naive rats. Format: in vivo, rat. As for the experimental part: All surgical procedures were performed under anesthesia induced by 2% isoflurane in compressed medical grade air. With rats in supine position, the right femoral vein was catheterized using polyethylene tubing (PE-50). This catheter was used for fluid and drug administration. Simultaneously, the right femoral artery was also catheterized for monitoring blood pressure. In order to measure the respiratory parameters in spontaneously breathing rats, trachea was intubated using 13 gauge tracheal tube (2.5 mm ID, Instech Solomon, Pa.).
After establishing a stable base-line at 1.5% isoflurane, cumulative dose-dependent (0.01, 0.03, 0.1, 0.3, 1, 3, 10 mg/kg) ventilatory responses to compounds (XXXVI) and (L), labeled as cmpd (A) and cmpd (B) respectively, were generated from spontaneously breathing rats. Maximum peak minute ventilatory (MV) values at each dose of corresponding drug were calculated and used for generating ED50 values.

Data set [4] relates to morphine-induced respiratory depression. The experiment in a line: Opioid-induced respiratory depression in the rat, plethysmography (minute ventilation). Type of data set: in vivo. The note with it: morphine sulfate 10 mg/kg IV; infusion 0.10 then 0.30 mg/kg/min, 20 min each; vs vehicle. As for the experimental part:
Rats with pre-cannulated jugular vein (for administering drugs) were acclimated to plethysmography chambers for a minimum of 60 minutes, or until animals were no longer restless. Each animal was dosed with morphine sulfate (10 mg/kg), dissolved in sterile water at a concentration of 10 mg/mL (supplied by Baxter Healthcare Corporation), via injection into the jugular vein catheter over a period of 5-10 seconds.
Compound (XXXVI) was dissolved in 20% hydroxypropyl β-cyclodextran (20% bcd on graph) at a concentration of 0.45 mg/mL at pH 5. After a period of 5 min, compound (XXXVI), labeled as cmpd (A), was administered via infusion into the jugular vein at a dose of 0.10 mg/kg/min for 20 min and then at a dose of […] for 20 min (e.g., 20 μL/min/0.3 kg rat to yield […]).
After 20 minutes of infusion at this dose, the infusion pumps were turned off, and all animals were given a 20 minute recovery period, followed by a post-study analysis of rat health and behavior. […] Results are illustrated in FIG. 1.

Data set [5] deals with midazolam-induced respiratory depression. The experiment in a line: Benzodiazepine-induced respiratory depression (BIRD), midazolam, rat plethysmography. Type of data set: in vivo. The procedure: Compound (XXXVI) was dissolved in 20% hydroxypropyl-beta-cyclodextran in sterile water, and titrated to a pH of 4-8 using pH paper and NaOH or HCl, resulting in a clear, stable solution at a concentration of 1.5 mg/mL. Other compounds: morphine sulfate, supplied as 10 mg/mL solution by (Baxter, Inc) and midazolam, supplied as 5 mg/mL solution (Hospira, Inc.)
Male Sprague-Dawley rats (Harlan, Inc.), 250-350 g at time of dosing, surgically prepared by Harlan with jugular vein cannulas. 12 Chamber Plethysmography System with temperature/humidity compensation (Epstein et al., 1980, J. Apply Physiol. 49:1107-1115); From Buxco, Inc. (PLY 3223; Buxco, Inc, Wilmington, N.C., USA) Biosystem XA, software, v2.11.1. Customized 12 site automated infusion system (Harvard Apparatus; Instech, Inc)
Rat whole body plethysmography was used to evaluate and quantify minute ventilation and the pattern of breathing. A respiratory waveform was generated from the exchange of air between the animal and the chamber. This exchange induced changes in air volume that were measured with a pressure transducer, constituting the respiratory waveform. Atmospheric temperature and humidity were also measured using temperature and humidity probes which sampled chamber conditions. A compensation factor was then determined and applied to the respiratory waveform using a standardized algorithm (Epstein et al., 1980, J. Apply Physiol. 49:1107-1115) to compensate for respiratory conditioning, which was reported as the parameter COMP (see appendix).
All animals were acclimated to plethysmography chambers for at least 1 hour, or until animals were no longer restless (up to 2 hours) prior to data collection. Bolus intravenous (IV) dosing was administered at a rate of 5-10 seconds per dose, and catheters were flushed with 350 μL of sterile saline to be sure of complete drug delivery. […] All plethysmography data was recorded automatically by the Buxco equipment.
Respiratory data were collected on a breath-by-breath basis and averaged into 1 min time bins for data analysis. For each designated acquisition phase, which is the time between doses, percent change from pre-treatment baseline values were calculated for each cohort on multiple ventilatory parameters including respiratory frequency (f), tidal volume (TV), accumulated volume (AV), minute ventilation (MV), inspiratory time (Ti), expiratory time (Te), peak inspiratory flow (PIF), peak expiratory flow (PEF), relaxation time (RT), end inspiratory pause (EIP), end expiratory pause (EEP), delta volume (DV), expiratory flow at 50% TV (EF50), rejection index (Rinx), compensation (Comp), enhanced pause (Penh), pause (PAU), PEF rate (Rpef), relative humidity (RH), and atmospheric temperature (Temp). […]

As a reminder, the pKa is the negative logarithm of the acid dissociation constant. One may read the ED50 as the midpoint of the dose-response relation. In data set [1], `CCCNc1nc(NCCC)nc(N(C)OC)n1.O=S(=O)(O)O` [XXXVI, N-(4,6-Bis-n-propylamino-[1,3,5]triazin-2-yl)-N,O-dimethyl-hydroxylamine hydrogen sulfate] came in with a pKa of 5.6. The “minute ventilation, hypoxic ventilatory response” value in data set [2] is “significantly potentiates the hypoxic ventilatory response”. In data set [3] (Rattus norvegicus, iv, read-out: ED50, maximum peak minute ventilation), the ED50 is 0.14 mg/kg. Also, in data set [3] (cumulative IV doses, 1.5% isoflurane), the “minute ventilation, dose dependence” value was “increased minute ventilation in a dose-dependent manner”. For the same molecule, in data set [4], the “minute ventilation, reversal of opioid-induced respiratory depression” value is given as “significantly reversed opioid-induced respiratory depression”. Moreover, in data set [5] (0.1 mg/kg/min infusion 30 min), the “effect on f, Ti, RT, EIP, dv, EF50, Rinx, Comp, Penh, PAU, Rpef, RH and Temp” value is “had no obvious effect”; the “effects of midazolam on MV, TV, AV, Te, PIF, PEF and EEP” value is given as “had an effect to reverse the effects of midazolam”. For the same molecule, the “reversal of the BIRD induced decrease in MV” value in data set [5] (0.1 mg/kg/min infusion, end of infusion period (t=38)) amounted to 100. In addition, the adverse behavioral effects entry in data set [5] (rats, doses tested) was “no adverse behavioral effects observed”.
